Experimental data published in US11780840B2 (Incyte Corporation, priority 2020, dated 2023).

Tests used:
[1] = biological target: T1, catalytic domain (JH1, amino acids 826-1132) of human JAK2 (Homo sapiens, UniProt O60674); experiment: JAK2 LanthaScreen JH1 Binding Assay; settings: JAK2 JH1 (1.5 nM), 50 nM fluorescent JAK2-JH1 tracer, 2 hours at 25° C.; read-out: JH1 BIND
T1 construct: catalytic domain (JH1, amino acids 826-1132) of human JAK2; FLAG (N); purchased Carna Biosciences 08-445-20N; host or cells: baculovirus expression system
T1 sequence (O60674 826-1132): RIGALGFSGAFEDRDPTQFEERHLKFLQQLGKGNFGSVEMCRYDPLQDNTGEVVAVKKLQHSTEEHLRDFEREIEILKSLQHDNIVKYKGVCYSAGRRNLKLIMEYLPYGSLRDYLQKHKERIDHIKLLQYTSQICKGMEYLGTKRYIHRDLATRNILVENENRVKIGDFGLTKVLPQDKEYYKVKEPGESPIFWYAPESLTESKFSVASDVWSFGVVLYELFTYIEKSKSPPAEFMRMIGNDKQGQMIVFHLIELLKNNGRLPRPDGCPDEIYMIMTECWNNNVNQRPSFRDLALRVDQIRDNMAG
Protocol: Example A. JAK2 LanthaScreen JH1 Binding Assay
JAK2 JH1 binding assay utilizes catalytic domain (JH1, amino acids 826-1132) of human JAK2 expressed as N-terminal FLAG-tagged, biotinylated protein in a baculovirus expression system (Carna Biosciences, Product #08-445-20N). The assay was conducted in black 384-well polystyrene plates in a final reaction volume of 20 μL. JAK2 JH1 (1.5 nM) was incubated with compounds (100 nL serially diluted in DMSO) in the presence of 50 nM fluorescent JAK2-JH1 tracer and 0.5 nM Streptavidin-Tb cryptate (Cisbio Part #610SATLB) in assay buffer (50 mM Tris, pH=7.5, 10 mM MgCl2, 0.01% Brij-35, 0.1% BSA, 1 mM EGTA, 5% Glycerol and 5 mM DTT). Non-specific binding was accessed in the presence of 2 mM ATP. After incubation for 2 hours at 25° C., LanthaScreen signals were read on a PHERAstar FS plate reader (BMG LABTECH). Data was analyzed with IDBS XLfit and GraphPad Prism 5.0 software using a four parameter dose response curve to determine IC50 for each compound.

[2] = biological target: T2, pseudo-kinase domain (JH2, amino-acids 536-812 with 3 surface mutations W659A, W777A, F794H) of human Wild Type JAK2 (Homo sapiens, UniProt O60674, F794H/W659A/W777A); experiment: JAK2 LanthaScreen JH2-WT Binding Assay; settings: JAK2 JH2-WT (0.145 nM), 50 nM Fluorescent JAK2-JH2 Tracer, 1 hour at 25° C.; read-out: JH2 BIND WT
T2 construct: pseudo-kinase domain (JH2, amino-acids 536-812 with 3 surface mutations W659A, W777A, F794H); His (C); Avi (biotinylated) (C); purchased BPS Bioscience 79463; host or cells: baculovirus expression system
T2 sequence (O60674 536-812 W659A/W777A/F794H): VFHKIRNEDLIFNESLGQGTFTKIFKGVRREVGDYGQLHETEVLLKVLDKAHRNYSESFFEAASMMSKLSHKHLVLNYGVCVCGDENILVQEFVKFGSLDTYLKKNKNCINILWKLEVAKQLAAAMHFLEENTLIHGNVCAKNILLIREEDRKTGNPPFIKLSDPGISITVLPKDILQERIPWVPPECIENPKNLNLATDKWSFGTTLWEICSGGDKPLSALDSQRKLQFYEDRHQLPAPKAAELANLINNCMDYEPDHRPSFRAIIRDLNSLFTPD
Protocol: Example B. JAK2 LanthaScreen JH2-WT Binding Assay
(§1) JAK2 JH2-WT binding assay utilizes pseudo-kinase domain (JH2, amino-acids 536-812 with 3 surface mutations W659A, W777A, F794H) of human Wild Type JAK2 expressed as C-terminal His-Avi-tagged, biotinylated protein in a baculovirus expression system (BPS Bioscience, Catalog #79463). The assay was conducted in black 384-well polystyrene plates in a final reaction volume of 20 μL. JAK2 JH2-WT (0.145 nM) was incubated with compounds (100 nL serially diluted in DMSO) in the presence of 50 nM Fluorescent JAK2-JH2 Tracer (MedChem Express Catalog #HY-102055) and 0.25 nM Streptavidin-Tb cryptate (Cisbio Part #610SATLB) in assay buffer (50 mM Tris, pH=7.5, 10 mM MgCl2, 0.01% Brij-35, 0.1% BSA, 1 mM EGTA, 5% Glycerol and 5 mM DTT). Non-specific binding was accessed in the presence of 2 mM ATP. After incubation for 1 hour at 25° C., LanthaScreen signals were read on a PHERAstar FS plate reader (BMG LABTECH). Data was analyzed with IDBS XLfit and GraphPad Prism 5.0 software using a four parameter dose response curve to determine IC50 for each compound.

[3] = biological target: T3, pseudo-kinase domain (JH2, amino-acids 536-812 with 3 surface mutations W659A, W777A, F794H) of human V617F mutant JAK2 (Homo sapiens, UniProt O60674, F794H/V617F/W659A/W777A); experiment: JAK2 LanthaScreen JH2-V617F Binding Assay; settings: JAK2 JH2-V617F (0.26 nM), 50 nM Fluorescent JAK2-JH2 Tracer, 1 hour at 25° C.; read-out: JH2 BIND V617F
T3 construct: pseudo-kinase domain (JH2, amino-acids 536-812 with 3 surface mutations W659A, W777A, F794H); His (C); Avi (biotinylated) (C); purchased BPS Bioscience 79498; host or cells: baculovirus expression system
T3 sequence (O60674 536-812 V617F/W659A/W777A/F794H): as the sequence (O60674 536-812 W659A/W777A/F794H) above, with V82F counted along it
Protocol: Example C. JAK2 LanthaScreen JH2-V617F Binding Assay
as §1, with “JH2-V617F” for “JH2-WT”, “V617F mutant” for “Wild Type”, “#79498).” for “#79463).”, “JH2-V617F (0.26” for “JH2-WT (0.145”

Row | Structure (SMILES) | IC50 [1] | IC50 [2] | IC50 [3]
1 | Cn1c(=O)n(C2CCCC2)c2c3c(-c4ccc(C5(C#N)CC5)cc4)c(-c4cnn(CS(C)(=O)=O)c4)[nH]c3ncc21 [Example 31, 1-(4-(1-Cyclopentyl-3-methyl-7-(1-((methylsulfonyl)methyl)-1H-pyrazol-4-yl)-2-oxo-1,2,3,6-tetrahydroimidazo [4,5-d]pyrrolo[2,3-b]pyridin-8-yl)phenyl)cyclo-propane-1-carbonitrile] | 100 to 500 nM | ≤ 10 nM | ≤ 10 nM
2 | COC1CC=C(c2c(-c3ccc(CN4CCC(S(C)(=O)=O)CC4)cc3)[nH]c3ncc4c(c23)n(C2CCCC2)c(=O)n4C)CC1 (stereo not drawn) [Example 32, 1-Cyclopentyl-8-(4-methoxycyclohex-1-en-1-yl)-3-methyl-7-(4-((4-(methylsulfonyl)piperidin-1-yl)methyl)phenyl)-3,6-dihydroimidazo[4,5-d]pyrrolo[2,3-b] pyridin-2(1H)-one] | 10 to 100 nM | ≤ 10 nM | ≤ 10 nM
3 | Cn1c(=O)n(C2CCCC2)c2c3c(C4=CCOCC4)c(-c4ccc(CN5CCC(S(C)(=O)=O)CC5)cc4)[nH]c3ncc21 [Example 33, 1-Cyclopentyl-8-(3,6-dihydro-2H-pyran-4-yl)-3-methyl-7-(4-((4-(methylsulfonyl)piperidin-1-yl)methyl)phenyl)-3,6-dihydroimidazo[4,5-d]pyrrolo[2,3-b] pyridin-2(1H)-one] | 10 to 100 nM | ≤ 10 nM | ≤ 10 nM
4 | Cn1c(=O)n(C)c2c3c(C4CC4)c(-c4ccc(CN5CCC(S(C)(=O)=O)CC5)cc4)[nH]c3ncc21 [Example 34] | 500 to 1000 nM | 500 to 1000 nM | > 1000 nM
5 | COc1ccc(-c2c(-c3ccc(CN4CCC(S(C)(=O)=O)CC4)cc3)[nH]c3ncc4c(c23)n(C)c(=O)n4C)cn1 [Example 35, 8-(6-Methoxypyridin-3-yl)-1,3-dimethyl-7-(4-((4-(methylsulfonyl)piperidin-1-yl)methyl)phenyl)-3,6-dihydroimidazo[4,5-d]pyrrolo[2,3-b]pyridin-2(1H)-one] | > 1000 nM | 100 to 500 nM | 100 to 500 nM
6 | CC(C)n1c(=O)n(C)c2cnc3[nH]c(-c4cnn(Cc5ccncc5)c4)c(-c4ccc(C#N)cc4)c3c21 [Example 36, 4-(1-Isopropyl-3-methyl-2-oxo-7-(1-(pyridin-4-ylmethyl)-1H-pyrazol-4-yl)-1,2,3,6-tetrahydroimidazo [4,5-d]pyrrolo[2,3-b]pyridin-8-yl)benzonitrile] | 100 to 500 nM | ≤ 10 nM | ≤ 10 nM
7 | CC(=O)N1CCN(c2ccc(-c3[nH]c4ncc5c(c4c3-c3ccc(C#N)cc3)n(C(C)C)c(=O)n5C)cc2)CC1 [Example 37, 4-(7-(4-(4-Acetylpiperazin-1-yl)phenyl)-1-isopropyl-3-methyl-2-oxo-1,2,3,6-tetrahydroimidazo [4,5-d]pyrrolo[2,3-b]pyridin-8-yl) benzonitrile] | > 1000 nM | ≤ 10 nM | ≤ 10 nM
8 | CC(C)n1c(=O)n(C)c2cnc3[nH]c(C4=CCOCC4)c(-c4ccc(C#N)cc4)c3c21 [Example 38, 4-(7-(3,6-Dihydro-2H-pyran-4-yl)-1-isopropyl-3-methyl-2-oxo-1,2,3,6-tetrahydroimidazo [4,5-d]pyrrolo[2,3-b]pyridin-8-yl)benzonitrile] | > 1000 nM | 10 to 100 nM | 10 to 100 nM
9 | CC(C)n1c(=O)n(C)c2cnc3[nH]c(C4CC4)c(-c4ccc(C#N)cc4)c3c21 [Example 39] | > 1000 nM | 10 to 100 nM | 10 to 100 nM
10 | Cn1c(=O)n(C)c2c3c(-c4ccccc4)c(-c4cccnc4)[nH]c3ncc21 [Example 40, 1,3-Dimethyl-8-phenyl-7-(pyridin-3-yl)-3,6-dihydroimidazo[4,5-d]pyrrolo[2,3-b]pyridin-2(1H)-one] | > 1000 nM | 500 to 1000 nM | > 1000 nM
11 | Cn1c(=O)n(C)c2c3c(-c4ccccc4)c(C4CCNCC4)[nH]c3ncc21 [Example 41, 1,3-Dimethyl-8-phenyl-7-(piperidin-4-yl)-3,6-dihydroimidazo[4,5-d]pyrrolo[2,3-b]pyridin-2(1H)-one] | > 1000 nM | > 1000 nM | > 1000 nM
12 | Cn1c(=O)n(C)c2c3c(-c4ccccc4)c(CCO)[nH]c3ncc21 [Example 42, 7-(2-Hydroxyethyl)-1,3-dimethyl-8-phenyl-3,6-dihydroimidazo[4,5-d]pyrrolo[2,3-b]pyridin-2(1H)-one] | > 1000 nM | > 1000 nM | > 1000 nM
13 | CC(C)C(=O)c1[nH]c2ncc3c(c2c1-c1ccccc1)n(C)c(=O)n3C [Example 43, 7-Isobutyryl-1,3-dimethyl-8-phenyl-3,6-dihydroimidazo [4,5-d]pyrrolo[2,3-b]pyridin-2(1H)-one] | > 1000 nM | > 1000 nM | > 1000 nM
14 | CC(C)n1c(=O)n(C)c2cnc3[nH]c(-c4cnn(CS(C)(=O)=O)c4)c(-c4ccccc4)c3c21 [Example 44] | 100 to 500 nM | ≤ 10 nM | ≤ 10 nM
15 | Cn1c(=O)n(C2CC3CCC2C3)c2c3c(-c4ccccc4)c(-c4cnn(CS(C)(=O)=O)c4)[nH]c3ncc21 (stereo not drawn) [Example 45, 1-(Bicyclo[2.2.1]heptan-2-yl)-3-methyl-7-(1-((methylsulfonyl)methyl)-1H-pyrazol-4-yl)-8-phenyl-3,6-dihydroimidazo[4,5-d]pyrrolo[2,3-b]pyridin-2(1H)-one] | 10 to 100 nM | ≤ 10 nM | 10 to 100 nM
16 | Cn1c(=O)n(C2CCOCC2)c2c3c(-c4ccccc4)c(-c4ccc(CN5CCC(S(C)(=O)=O)CC5)cc4)[nH]c3ncc21 [Example 46, 3-Methyl-7-(4-((4-(methylsulfonyl)piperidin-1-yl)methyl)phenyl)-8-phenyl-1-(tetrahydro-2H-pyran-4-yl)-3,6-dihydroimidazo[4,5-d]pyrrolo[2,3-b] pyridin-2(1H)-one] | 500 to 1000 nM | ≤ 10 nM | ≤ 10 nM
17 | Cn1ncc2cc(-c3c(-c4cnn(CC(C)(C)O)c4)[nH]c4ncc5c(c34)n(C3CCCC3)c(=O)n5C)ccc21 [Example 47, 1-Cyclopentyl-7-(1-(2-hydroxy-2-methylpropyl)-1H-pyrazol-4-yl)-3-methyl-8-(1-methyl-1H-indazol-5-yl)-3,6-dihydroimidazo[4,5-d]pyrrolo[2,3-b]pyridin-2(1H)-one] | 100 to 500 nM | ≤ 10 nM | ≤ 10 nM
